Measurements reported in ChEMBL document CHEMBL1914363, “Identification of a naturally occurring quinazolin-4(3H)-one firefly luciferase inhibitor” (J Nat Prod, 2011).
The source made the active and inactive calls. The calls are words filed in the database; no cut-off is given here.

Tests used:
[1] = target: T1, Luciferin 4-monooxygenase (Luciola lateralis, UniProt Q01158); test: Inhibition of firefly luciferase by ATPlite assay in absence of AMPK; set-up: species or system Aquatica lateralis
T1 sequence (Q01158 whole entry): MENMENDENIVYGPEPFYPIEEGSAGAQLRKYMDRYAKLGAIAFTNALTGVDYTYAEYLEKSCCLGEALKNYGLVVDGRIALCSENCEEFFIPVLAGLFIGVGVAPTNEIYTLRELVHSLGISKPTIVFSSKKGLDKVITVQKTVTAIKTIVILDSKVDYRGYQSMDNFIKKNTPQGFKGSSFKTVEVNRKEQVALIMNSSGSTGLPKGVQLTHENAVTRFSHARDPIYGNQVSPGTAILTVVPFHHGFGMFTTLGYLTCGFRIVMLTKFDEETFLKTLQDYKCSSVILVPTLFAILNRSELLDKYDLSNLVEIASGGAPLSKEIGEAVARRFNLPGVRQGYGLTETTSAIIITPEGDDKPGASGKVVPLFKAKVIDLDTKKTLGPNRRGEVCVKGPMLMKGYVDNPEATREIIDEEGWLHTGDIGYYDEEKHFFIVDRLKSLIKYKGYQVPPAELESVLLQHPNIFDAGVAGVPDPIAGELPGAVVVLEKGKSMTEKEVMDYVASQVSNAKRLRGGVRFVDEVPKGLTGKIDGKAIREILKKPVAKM

[2] = target: T2, Luciferin 4-monooxygenase (Luciola lateralis) (UniProt Q01158); test: Inhibition of firefly luciferase by ATPlite assay in presence of AMPK; details: Aquatica lateralis
T2 sequence (whole entry): T1 sequence (Q01158 whole entry)

EC50 [1]: 730 nM
inhibition [2]: Active
Structure (SMILES): CNc1ccc(-c2nc3ccccc3c(=O)[nH]2)cc1
